Source: patent publication US6562371B1, “Liposomes” (Terumo Kabushiki Kaisha, priority 1998, dated 2003)

System: Anti-Thy-1 antibody nephritis rats
Experiment: Pharmacological effect: total protein content in urine
Format: in vivo, rat
Details: administered once i.v. on the fifth day after anti-Thy-1 antibody, urine collected on the tenth day
Experimental: Anti-Thy-1 antibody nephritis rats were prepared by intravenously administering an anti-Thy-1 antibody solution through the caudal vein of each CD (SD) male rat. On the fifth day after administration of the anti-Thy-1 antibody, the liposome dispersion liquid obtained in Preparation Example 15 (1 mg as prednisolone phosphate sodium) was administered by intravenous injection. On the tenth day after administration of the anti-Thy-1 antibody, urine was collected to measure the total protein content.
For the sake of comparison, the preparation of Comparative Example 1 (a liposome dispersion liquid having no included drug) or physiological saline was administered by the same method, and urine was collected on the tenth day after administration of the anti-Thy-1 antibody to measure the total protein content.
Also, a prednisolone phosphate sodium solution (1 mg as prednisolone phosphate sodium) which was not made into liposomes was administered once on the fifth day after administration of the anti-Thy-1 antibody, or five times (once a day for 5 days) started on the fifth day after administration of the anti-Thy-1 antibody, and urine was collected on the tenth day after administration of the anti-Thy-1 antibody to measure the total protein content.
Urine was also collected from un-treated normal rat to measure the total protein content.

prednisolone phosphate sodium
effect on excretion of protein into urine (total protein content): no effect was found
